# Data taken from paper PMC13266999, “Designing Antibiotics with Inherent Resistance to Efflux as a Strategy to Revive Discovery against Multidrug-Resistant Pathogens” (Journal of Medicinal Chemistry, 2026).
# Like-named read-outs stand apart in the source and are kept apart here.
# Tested on: S. aureus
# Test: MIC (microbroth dilution)
# Assay type: cell-based, Staphylococcus aureus
# Settings: Staphylococcus aureus
# Description: All bacteria were maintained on tryptic soy agar (TSA), except Streptococcus spp., which were maintained on Columbia agar plates containing 5% horse blood. […] Bacteria were grown to stationary phase in liquid culture overnight, with shaking at 200 rpm, before being back diluted to the relevant starting concentration for each assay below. MICs were measured by the microbroth dilution method. […] Absorbance at OD600 was read on a CLARIOstar spectrophotometer (BMG Labtech) and the MIC was defined as the minimum concentration of compound where no visible growth was detected. […] MICs were also performed in the presence of the outer membrane permeator, polymyxin b nonapeptide (PMBN) following the same MIC method but with the following variation. The 2-fold dilution series of compound was prepared as above, then 50 μL of PMBN at a final concentration of 30 μg/mL was added to relevant wells, while 50 μL/well of blank media was added to the remaining wells. Bacteria were then added at 50 μL/well for a starting concentration as above. […] The MICs were read and defined as above. All animal procedures were performed by the contract research organization Pharmacology Discovery Services Taiwan in accordance with the Guide for the Care and Use of Laboratory Animals. The procedures were approved by the Institutional Ethics Committee of Pharmacology Discovery Services Taiwan, Ltd. (approval no. AB127662), in compliance with animal welfare legislation in Taiwan.
# [1] = ATCC9144, ATCC 9144, read-out: MIC
# [2] = NCTC13277, NCTC 13277, read-out: MIC
# [3] = NCTC13616, NCTC 13616, read-out: MIC
SMILES,MIC [1] [µg/mL],MIC [2] [µg/mL],MIC [3] [µg/mL],"MIC (SA-1199, read-out: MIC) [µg/mL]",MIC (SA-1199B (NorA-overexpressing)) [µg/mL]
"CCn1cc(C(=O)O)c(=O)c2cc(F)c(N3CCNCC3)cc21 [Compound 2, norfloxacin, reference compound]",2,> 128,> 128,–,–
"CCn1cc(C(=O)O)c(=O)c2cc(F)c(N3CCNCC3)nc21 [Compound 3, enoxacin, reference compound]",2,128,> 128,–,–
"CCn1cc(C(=O)O)c(=O)c2cc(F)c(N3CCN(Cc4cccc5ccccc45)CC3)cc21 [Compound 20, 1-Ethyl-6-fluoro-7-(4-(naphthalen-1-ylmethyl)piperazin-1-yl)-4-oxo-1,4-dihydroquinoline-3-carboxylic acid]",1,2,2,–,–
"CCn1cc(C(=O)O)c(=O)c2cc(F)c(N3CCN(Cc4cccc5ccccc45)CC3)nc21 [Compound 21, 1-Ethyl-6-fluoro-7-(4-(naphthalen-1-ylmethyl)piperazin-1-yl)-4-oxo-1,4-dihydro-1,8-naphthyridine-3-carboxylic acid]",0.5 to 1,2 to 4,2 to 8,–,–
"C[C@H]1COc2c(N3CCN(Cc4cccc5ccccc45)CC3)c(F)cc3c(=O)c(C(=O)O)cn1c23 [Compound 22, (S)-9-Fluoro-3-methyl-10-(4-(naphthalen-1-ylmethyl)piperazin-1-yl)-7-oxo-2,3-dihydro-7H-[1,4]oxazino[2,3,4-ij]quinoline-6-carboxylic acid]",0.125 to 1,2 to 4,4,0.25,0.5
"O=C(O)c1cn(C2CC2)c2cc(N3CCN(Cc4ccc5ccccc5c4)CC3)c(F)cc2c1=O [Compound 23, 1-Cyclopropyl-6-fluoro-7-(4-(naphthalen-2-ylmethyl)piperazin-1-yl)-4-oxo-1,4-dihydroquinoline-3-carboxylic acid]",0.125,2,2,–,–
"CCn1cc(C(=O)O)c(=O)c2cc(F)c(N3CCN(Cc4ccc5ccccc5c4)CC3)cc21 [Compound 24, 1-Ethyl-6-fluoro-7-(4-(naphthalen-2-ylmethyl)piperazin-1-yl)-4-oxo-1,4-dihydroquinoline-3-carboxylic acid]",0.25,4,4,–,–
"O=C(O)c1cn(C2CC2)c2cc(N3CCN(Cc4ccccc4)CC3)c(F)cc2c1=O [Compound 25, 7-(4-Benzylpiperazin-1-yl)-1-cyclopropyl-6-fluoro-4-oxo-1,4-dihydro quinoline-3-carboxylic acid]",0.125 to 0.25,32,16 to 32,–,–
"CCn1cc(C(=O)O)c(=O)c2cc(F)c(N3CCN(Cc4ccccc4)CC3)cc21 [Compound 26, 7-(4-Benzylpiperazin-1-yl)-1-ethyl-6-fluoro-4-oxo-1,4-dihydroquinoline-3-carboxylic acid]",0.25,16 to 32,16,–,–
"O=C(O)c1cn(C2CC2)c2cc(N3CCN(Cc4cccc5cccnc45)CC3)c(F)cc2c1=O [Compound 27, 1-Cyclopropyl-6-fluoro-4-oxo-7-(4-(quinolin-8-ylmethyl)piperazin-1-yl)-1,4-dihydroquinoline-3-carboxylic acid]",0.5,128,64,0.125,0.25
"CCn1cc(C(=O)O)c(=O)c2cc(F)c(N3CCN(Cc4cccc5cccnc45)CC3)cc21 [Compound 28, 1-Ethyl-6-fluoro-4-oxo-7-(4-(quinolin-8-ylmethyl)piperazin-1-yl)-1,4-dihydroquinoline-3-carboxylic acid]",1,128,128,–,–
"O=C(O)c1cn(C2CC2)c2cc(N3CCN(Cc4cccc5c4CCCC5)CC3)c(F)cc2c1=O [Compound 29, 1-Cyclopropyl-6-fluoro-4-oxo-7-(4-((5,6,7,8-tetrahydronaphthalen-1-yl)methyl)piperazin-1-yl)-1,4-dihydroquinoline-3-carboxylic acid]",0.25 to 1,1 to 2,1,0.5,0.5
